Test system: MAT2A mRNA splicing in MDA-MB-231 cells
Assay: MAT2A splicing by RT-qPCR, MDA-MB-231
Assay type: cell-based, human
Settings: 50 μM, 24 h, 45 potassium salt used
Experimental: MDA-MB-231 cells and A549 cells were seeded into 6-well plates at 70% confluency and cultured overnight. Afterward they were treated with compound 45 potassium salt for 24 h. After the compound treatment, the cell culture medium was discarded and cells were washed with DPBS three times. The total RNA was then purified using RNeasy Mini Kit (Qiagen 74106) following the manufacturer’s protocol.
The reverse transcription was performed by using High-Capacity cDNA Reverse Transcription Kits (Thermo Fisher 4368814) with 500 ng of total RNA. qPCR was performed using PowerUp SYBR Green Master Mix (Thermo Fisher, A25742) with a 10 μL volume. The cycling was performed using Bio-Rad CFX96 Real-Time PCR Detection System following the standard cycling mode (primer Tm ≥ 60 °C) on the manufacturer’s protocol. The p value was calculated using GraphPad Prism software’s one-way ANOVA analysis.

How did the “MAT2A splicing, in words” value turn out when `CN1C(=O)C(=C2SC(NS(=O)(=O)c3ccc(C(=O)O)cc3)=NC2=O)c2cc(Br)ccc21` [Compound 45] was run?
The value was “promoted MAT2A splicing”.
